Data set [1] deals with HCT-116 colon cancer tumor. In words: HCT116 xenograft mouse model. To be noted: 20 mg/kg i.p. every 5 days, until 20 days post-treatment. The class given is in vivo, nu/nu mice. The method, then: The effect of GS27 on colon cancer tumor growth in mice was evaluated in a HCT116 xenograft mouse model. HCT-116 is a human colorectal cancer cell line that has a mutation in RAS proto-oncogene.
Xenograft tumors were generated by injecting HCT-116 colon cancer cells (5×10^6) into the right flank of female nu/nu mice (Charles River Laboratories). All mice developed tumors in 10 days with size of approximately 100 mm3. For each experiment, mice were randomly distributed into equal groups (4 mice per group) that were untreated, or treated by intraperitoneal injections every 5 days with 20 mg/kg GS27 or GS19 (oleocanthal). Tumor volume (average, SD) was evaluated until 20 days post-treatment.

In data set [2] the test system is LNCaP prostate cancer cells. The conditions noted are these: literature; cited from earlier work.
The next data set concerns p70 S6 (T389). The experiment in a line: ELISA of p70 S6 (T389) in PANC-1 cells. The class given is cell-based, human. To be noted: rIGF1, 5 μM, 24 hours. The method, then:
(§1) ELISA assay was used to evaluate the effect of GS compounds on protein activity levels in PANC-1 cancer cells. PANC-1 cells were serum-starved overnight and then treated with rIGF1 (100 ng/mL) for 24 hours, with or without GS27 (5 μM). The levels of the following proteins were evaluated by ELISA assay: a) p70 S6 (T389) (cat no. 54164C, Cell Signaling); b) pAKT (S473), (cat no. 80895, Cell Signaling); c) pACLY (S455), (cat no. okag1672, Avivasysbio); d) pAMPK (T172) (cat no. 7959C, Cell Signaling) and e) p65/NFKB (S536), (cat no. 7173, Cell Signaling).
(§2) PANC-1 is a human pancreatic ductal adenocarcinoma cell line derived from the carcinoma of a person.
(§3) The molecular mechanism of action of GS27, a compound that has exerted potent anti-cancer activity in different cancer cell lines including pancreatic cancer cells, was investigated. Oleacein has been implicated to have anti-inflammatory and metabolic effects, thus the potential effects of GS27 in different metabolic and inflammatory pathways were evaluated. Specifically, the protein levels of p70 S6 (T389), pAKT (S473), pACLY (S455), pAMPK (T172) and p65/NFKB (S536) were evaluated by ELISA assay in PANC-1 pancreatic cancer cells treated with 5 μM GS27. GS27 reduced p70 S6 and AKT phosphorylation levels, while it increased AMPK phosphorylation.
A general note: In an ELISA, binding on a coated surface is turned into a signal by an enzyme label.

For data set [3], the system named is AsPC-1 pancreatic cancer tumor cells. The experiment in a line: Nile red lipid content of AsPC-1 xenograft tumors. The conditions noted are these: 100 mg/kg i.p., tumors collected 24 days post-treatment. The class given is in vivo, mice. The method, then: Tumors derived from the mice treated by intraperitoneal injection with GS27 at 100 mg/kg were collected 24 days post-treatment. The tumors were evaluated for their lipid content using the dye nile red as a fluorescent vital stain for the detection of intracellular lipid droplets by fluorescence microscopy and flow cytofluorometry, as described previously (Greenspan, Peter et al., J Cell Biol, 1985, 100(3):965-973). […] Quantification of the data is shown in the bar graph.

The test system of another data set is pAMPK (T172). In words: ELISA of pAMPK (T172) in PANC-1 cells. The class given is cell-based, human. To be noted: rIGF1, 5 μM, 24 hours. The method, then:
as §1, §2, §3

The test system of data set [4] is AsPC-1 pancreatic cancer tumor. The experiment in a line: AsPC-1 xenograft mouse model. The conditions noted are these: 100 mg/kg i.p. daily for 5 days. The class given is in vivo, NOD/SCID mice. The method, then: The effect of GS27 on pancreatic cancer tumor growth in mice was evaluated in a AsPC-1 xenograft mouse model.
Xenograft tumors were generated by injecting AsPC-1 pancreatic cancer cells (0.5×10^6) into the right flank of male NOD/SCID mice (n=5/group). All mice developed tumors in 10 days with size of approximately 100 mm3. For each experiment, mice were randomly distributed into equal groups (5 mice per group) that were untreated or treated by intraperitoneal injections daily for 5 days with 100 mg/kg GS27. Tumor volume (average, SD) and the weight of the animals were evaluated until 24 days post-treatment.

For another data set, the system named is TNF-α. The experiment in a line: ELISA of TNF-α in PMA/LPS-treated THP-1 cells. The conditions noted are these: THP-1, PMA then LPS 100 ng/ml 24 hours, 5 uM compound added 2 hours before LPS. The class given is cell-based, human. The method, then:
Human monocytes (THP-1, ATCC) were cultured in RPMI 1640 media supplemented with HEPES buffer (10 mM), sodium pyruvate (1 mM), glucose (4.5 g/L), fetal bovine serum (10%), penicillin (100 U/mL), streptomycin (100 μg/mL), and 2-mercaptoethanol (0.05 mM). THP-1 cells were treated with PMA (100 ng/ml) for 48 hours and then washed and rested for 24 hours in PMA-free media. These cells were treated with LPS (100 ng/ml) for 24 hours in the presence or absence of 5 uM of […] compounds (added 2 hours before LPS). Cell culture supernatants were collected and IL-1β (cat. No DLB50, R&D Systems), TNF-α (cat. no. DTA00D, R&D Systems) and IL-6 (cat. No D6050, R&D Systems) protein levels were evaluated by ELISA assay.

For `C/C=C(/C=O)[C@@H](CC=O)CC(=O)OCCc1ccc(O)cc1` [GS19, (3S,4E)-4-formyl-3-(2-oxoethyl)-4-hexenoic acid 2-(4-hydroxyphenyl)ethyl ester, reference compound], in data set [1], the “tumor size inhibition, HCT-116 colon cancer tumor growth” value was “did not show any significant effect”. In data set [2], the “concentration found to reduce LNCaP prostate cancer cell growth” value was 500 µM.

In the case of `C/C=C(/C=O)[C@@H](CC=O)CC(=O)SCCc1ccccc1` [GS27, S-phenethyl (3S,4E)-4-formyl-3-(2-oxoethyl)hex-4-enethioate], the “tumor size inhibition, HCT-116 colon cancer tumor growth” value in data set [1] is given as > 60%. The “p70 S6 phosphorylation levels” value with p70 S6 (T389) is reported as “reduced”. Further, the “reduction in the lipid content of AsPC-1 tumor cells” value in data set [3] amounted to 55%. In addition, the AMPK phosphorylation result in the data set with pAMPK (T172) is listed as “increased”. In addition, in data set [4], the “weight of the mice” value is reported as “did not affect”. In data set [4] (until 24 days post-treatment), the “inhibition of AsPC-1 pancreatic cancer tumor growth” value came out at 34%.

As for `C/C=C(/C=O)[C@@H](CC=O)CC(=O)OCCOc1ccccc1` [GS24, (3S,4E)-4-formyl-3-(2-oxoethyl)-4-hexenoic acid 2-phenoxyethyl ester], the TNF-α protein levels entry with TNF-α is given as “reducing substantially”.

The record behind these values is patent publication US12414960B2, “Analogues of oleuropein and oleacein and uses thereof” (Attica Sciences Ltd., priority 2020, dated 2025).
